Patent publication EP3368040B1, “METHODS AND COMPOSITIONS FOR RECOVERY FROM STROKE” (Eip Pharma, LLC, priority 2015, dated 2017)

Tests used:
animal models of stroke = conditions: administered 24-hours after stroke; Piao et al. 2003; cited from earlier work
cytokine signaling = conditions: relative to IC50 for cytokine production; Alam 2015; cited from earlier work
[1] = treatment of rheumatoid arthritis; cited from earlier work
rat model of stroke [2] = experiment: transient MCAO in rats: forelimb placement test; format: in vivo, Sprague Dawley rats; conditions: Week 4 and Week 6; 1.5 and 4.5 mg/kg PO twice a day
Method: (§1) Altogether 76 adult male Sprague Dawley rats, purchased from Harlan Laboratories, (Israel), and weighing 300-350 g were used for the experiment. Animals were housed at a standard temperature (20-24°C) and in a light-controlled environment (12 hours light / 12 hours dark) with ad libitum access to food and water. Animals were grouped as follows: • Group 1M: 20 tMCAO animals treated twice-a-day with vehicle from Day 3 (day 1 being day of stroke surgery) to Day 42 (via PO gavage) • Group 2M: 22 tMCAO animals treated twice-a-day with VX-745 (1.5 mg/kg) from Day 3 (day 1 being day of stroke surgery) to Day 42 (via PO gavage) • Group 3M: 21 tMCAO animals treated twice-a-day with VX-745 (4.5 mg/kg) from Day 3 (day 1 being day of stroke surgery) to Day 42 (via PO gavage)
Transient middle cerebral artery occlusion was performed according to the method described in R. Schmid-Elsaesser et al., Stroke, 29(10):2162-2170 (1998). The right Common Carotid Artery (CCA) was exposed through a midline neck incision and carefully dissected free from surrounding nerves and fascia - from its bifurcation to the base of the skull. The occipital artery branches of the ECA (External Carotid Artery) were then isolated, and these branches were dissected and coagulated. The ECA was dissected further distally and coagulated along with the terminal lingual and maxillary artery branches, which was then divided. […]

[3] = transient MCAO in rats: body weight monitoring; format: in vivo, Sprague Dawley rats; conditions: through the study; 1.5 and 4.5 mg/kg PO twice a day versus vehicle
Method: as §1
Animals were handled at a minimum for three days before the surgery. Baseline measures were taken before stroke was induced. Stroke surgery occurred on Day 1. On Day 2, 24 hours post-stroke surgery, Neuroscore testing was performed. Only animals reaching and exceeding Neuroscore criteria was included in the study. On Days 3-42, treatment with vehicle or VX-745 was administered twice a day for 40 days via PO (oral) gavage for all groups. Behavioral tests for all groups were conducted on weeks 4 and 6. Animals were sacrificed on Day 44 and brains were harvested. […]

[4] = brain versus blood drug concentration in pre-clinical studies; format: in vivo
rat model of stroke [5] = experiment: transient MCAO in rats: neurological scoring (Neuroscore, mNSS); format: in vivo, Sprague Dawley rats
Method: as §1
Transient middle cerebral artery occlusion was performed according to the method described in R. Schmid-Elsaesser et al., Stroke, 29(10):2162-2170 (1998). The right Common Carotid Artery (CCA) was exposed through a midline neck incision and carefully dissected free from surrounding nerves and fascia - from its bifurcation to the base of the skull. The occipital artery branches of the ECA (External Carotid Artery) were then isolated, and these branches were dissected and coagulated. The ECA was dissected further distally and coagulated along with the terminal lingual and maxillary artery branches, which was then divided. The ICA (Internal Carotid Artery) was isolated and carefully separated from the adjacent vagus nerve, and the pterygopalatine artery was ligated close to its origin with a 5-0 nylon suture (SMI, Belgium). Next, a 4-0 silk suture was tied loosely around the mobilized ECA stump, and a 4 cm length of 4-0 monofilament nylon suture (the tip of the suture was blunted by using a flame, and the suture was coated with polylysine, prior to insertion) was inserted through the proximal ECA into the ICA and thence into the circle of Willis, effectively occluding the MCA. The surgical wound was closed and the animals were returned to their cages to recover from anesthesia. […]

rat model of stroke [6] = experiment: transient MCAO in rats: body swing test; format: in vivo, Sprague Dawley rats; conditions: particularly in the 4.5 mg/kg dose group
Method: as §1
(§2) Transient middle cerebral artery occlusion was performed according to the method described in R. Schmid-Elsaesser et al., Stroke, 29(10):2162-2170 (1998). […]
Body Swing Test. […] A swing was recorded whenever the rat moved its head out of the vertical axis to either side. Before attempting another swing, the rat had must return to the vertical position for the next swing to be counted. Twenty (20) total swings were counted. […] Body swing scores were expressed as a percentage of rightward over total swings. […]

[7] = transient MCAO in rats: mortality and clinical signs; format: in vivo
Method: Animals were handled at a minimum for three days before the surgery. Baseline measures were taken before stroke was induced. Stroke surgery occurred on Day 1. On Day 2, 24 hours post-stroke surgery, Neuroscore testing was performed. Only animals reaching and exceeding Neuroscore criteria was included in the study. […] Behavioral tests for all groups were conducted on weeks 4 and 6. Animals were sacrificed on Day 44 and brains were harvested.

rat model of stroke [8] = experiment: transient MCAO in rats: stepping test; format: in vivo, Sprague Dawley rats; conditions: Week 4 up to Week 6; 1.5 and 4.5 mg/kg PO twice a day
Method: as §1, §2
Stepping Test. […] The animal was held with its hind limbs fixed in one hand and the forelimb, not to be monitored, in the other, while the unrestrained fore-paw touches the table. The number of adjusting steps were counted while the animal was moved sideways along the table surface (85 cm during approximately five seconds), in the forehand & backhand direction for both forelimbs. […]

cytokine production = conditions: inhibition of cytokine production; cited from earlier work
IL-1β = experiment: transient MCAO in rats: IL-1β ELISA of brain at study termination; format: in vivo, Sprague Dawley rats; conditions: study termination (Day 44); right minus left hemisphere; trend to lower concentrations in treated groups
From the text: The brains of all animals were harvested on Day 44. Rats were sacrificed by CO2 inhalation. Brains were harvested from all animals in each group, divided to left and right hemisphere, weighed, and snap frozen.
Brains were harvested at study termination. Each brain was dissected into two hemispheres and each hemisphere was weighed and enclosed into tubes marked Left or Right. Each tube was immediately frozen in liquid nitrogen and stored at (-80)°C. The tissues were defrosted and homogenized in 1 ml / 200 mg tissue of 20mM Tris-HCL pH 7.4 containing a protease inhibitor cocktail (50 µl/ml). Samples were centrifuged at 10,000 g for 15 min at 4°. Clear supernatants were aliquoted (150 µl/aliquot) and stored at (-80)°C until EILSA assays were performed. ELISA assay was executed according to kit instructions. Standards and samples were tested in duplicates.
Following study termination, animals were also tested for IL-1β brain levels using the ELISA system (see Figure 8 for standard curves). The variability of the results was too large to allow definitive conclusions. All the results below the Lower Limit of Quantification (LLOQ) were assigned the LLOQ value of 5pg/ml. Then, results for the uninjured left side were subtracted from the results of the right side. The distribution for individual rats is given in the figure below (n=18 in each of the study groups) (Figure 9).

Structure (SMILES): C[S+]([O-])c1ccc(-c2nc(-c3ccc(F)cc3)c(-c3ccncc3)[nH]2)cc1 (stereo not drawn) [SB203850]
- effect on recovery from neurologic deficit (animal models of stroke): no significant effect

Structure (SMILES): O=c1ncn2nc(Sc3ccc(F)cc3F)ccc2c1-c1c(Cl)cccc1Cl [VX-745]
- IC50 for inhibition of cytokine signaling (cytokine signaling): half that for cytokine production
- mean blood concentration [1]: approximately 75 ng/mL
- forelimb placement test, sensory motor improvement versus vehicle treated control group (rat model of stroke [2]): Statistically significant differences
- body weight, differences between groups [3]: No statistically significant differences
- drug concentrations in the brain compared with the blood [4]: approximately two-fold
- neuroscore, difference between the two doses (rat model of stroke [5]; 1.5 mg/kg versus 4.5 mg/kg PO twice a day (Figure 2)): statistically significant difference
- neuroscore delta (change from Day 2 to actual Week) versus vehicle treated control group (rat model of stroke [5]; Week 4 or Week 6, 1.5 and 4.5 mg/kg PO twice a day, Day 3 to Day 42): statistically significant difference
- absolute neuroscore versus vehicle treated control group (rat model of stroke [5]; Weeks 4 and 6, 1.5 and 4.5 mg/kg PO twice a day, Day 3 to Day 42, start 48 hours after reperfusion): statistically significant difference
- body swing test, outcome (rat model of stroke [6]): near normalization
- rats that died after treatment initiation ([7]; 1.5 mg/kg group (2M), within two weeks of treatment initiation): one
- general clinical signs, differences between groups ([7]; 1.5 and 4.5 mg/kg PO twice a day versus vehicle): no observed differences
- stepping test, sensory motor deficit (number of steps, left forelimb) versus vehicle treated control group (rat model of stroke [8]): Statistically significant differences
- whole blood IC50 (cytokine production): 0.065 to 0.08 µg/mL
- IL-1β levels in the brain, differences between groups (IL-1β): No statistically significant differences
